Assay results as given in patent US6548507B1, “Medical use” (SmithKline Beecham Corporation, priority 1999, dated 2003).

Experiments:
[1] = system: apoptotic neurons in L5 dorsal root ganglions; assay: Neuronal apoptosis after sciatic nerve axotomy in the neonatal rat (TUNEL combined with Hoechst 33342 and immunohistochemistry); assay type: in vivo; settings: single pre-emptive injection 10 mg/kg s/c, observed at 24 hours, vs vehicle treated controls
Description: Newborn animals received a single pre-emptive injection of R(−)-2,4-diamino-5-(2,3-dichlorophenyl)-6-fluoromethyl pyrimidine, substantially free of the corresponding S(+)enantiomer (4030W92) (10 mg/kg, s/c). Twenty minutes later the animals were anaesthetised by hypothermia, the nerve exposed and transected at the mid thigh level. The extent of neuronal and glial apoptosis was investigated using the TUNEL technique combined with Hoechst 33342 (Sigma) and immunohistochemistry. The ipsilateral and contralateral L5 dorsal root ganglions were compared and the 4030W92 treated group was compared to vehicle treated controls and to animals that received an injection of 4030W92 alone, ie. no nerve transection.

[2] = system: sensory neuronal apoptosis; assay: Apoptosis in L4 and L5 dorsal root ganglia after chronic constriction injury (CCI), Hoechst 33342 staining; assay type: in vivo, rat; settings: for number of neurones undergoing apoptosis (FIG. 2): CCI rats, 10 mg/kg, time points day 7, 21 and 30, vs vehicle treated animals; for sensory neuronal apoptosis / glial apoptosis: adult male CCI rats; for sensory neuronal apoptosis: 10 mg/kg dosed day 12 to day 25, at day 30 post surgery; for glial apoptosis: 10 mg/kg dosed day 12 to day 25, results not shown
Description: Adult male random hooded rats were either chronic constriction injury (CCI) or sham operated at day 0. Dosing with vehicle, 4030W92 (10 mg/kg) or 4082W92 (10 mg/kg) was from day 12 to day 25. At time points 7, 14, 21, 27 and 30 days post surgery animals (n=3 per group except for naives) were sacrificed by exsanguination after behavioural testing as described below. Naive animals were all sacrificed 30 days post surgery. L4 and L5 dorsal root ganglias were removed and placed in a freezing medium for sectioning. Sections (14 μm) were cut using a freezing cryostat (Leica) and placed on poly (L) lysine coated slides. These were post-fixed in 4% paraformaldehyde (Sigma) for 20 minutes, dehydrated through alcohol and kept at −80° until required. On the day of staining, the sections were rehydrated through alcohol and placed in phosphate buffered saline (PBS) for at least 15 minutes. They were incubated with the fluorescent nuclear stain Hoechst 33342 (1 μg/ml) (Sigma) for 4 minutes and then washed extensively with PBS. After drying, the slides were mounted with Vectashield mounting medium (Vector Labs) and coverslipped. The slides could be kept in the dark for up to 6 weeks without fading.
The sections were studied under the microscope (Leica) at 400× for morphological signs of apoptosis—nuclear condensation, membrane blebbing and presence of apoptotic bodies (Trump 1997 supra). Cells were assigned as neurones or glia depending on their size, location, and general morphology. Four fields from each section were selected at random, the number of apoptotic cells and total number of cells was counted in each and then mean figures for each group were calculated. This analysis was carried out blind. […] Glial apoptosis was unaffected (results not shown).

[3] = system: mechanical hypersensitivity; assay: CCI-induced decrease in mechanical paw withdrawal threshold (algesymeter); assay type: in vivo, rat; settings: CCI rats, drug administered from day 12, algesymeter
Description: (§1) Under isoflurane anaesthesia, the common left sciatic nerve of male Random Hooded rats (180-200 g) was exposed at mid-thigh level. Four ligatures of chromic gut (4.0) were tied loosely around the nerve with a 1 mm spacing between each. The wound was then closed and secured with suture clips. The surgical procedure was identical for the sham operated animals except the sciatic nerve was not ligated. The rats were allowed a period of seven days to recover from the surgery before behavioural testing began.
The effect on Chronic Constriction Injury-induced decrease in mechanical paw withdrawal threshold was measured using an algesymeter (Randall L O, Selitto J J. A method for measurement of analgesic activity on inflamed tissue. Arch. Int. Pharmacodyn. 1957; 61:409-419). In brief, from 7 days post surgery onwards every 2 or 3 days the animals were tested for mechanical hypersensitivity by applying an increasing weight (16 gram per second) to the dorsal surface of each hindpaw until the rat attempted to remove the paw. The increasing weight was halted at this point and the weight recorded and expressed as mechanical paw withdrawal threshold. The maximum weight applied in this model was 250 gram. Drug was administered once the hypersensitivity was maximal which in this case was at day 12.

mechanical allodynia = assay: CCI mechanical allodynia, Von Frey Hair monofilaments; assay type: in vivo, rat; settings: CCI rats, drug administered from day 12, Von Frey Hair monofilaments
Description: as §1
The presence of mechanical allodynia was assessed using Von Frey Hair monofilaments (range:4.19-84.96 g). The rats were lightly restrained and placed upon a metal grid floor. The monofilaments were applied to the plantar surface of the hindpaws from below the grid. The lowest monofilament to produce a withdrawal was the response recorded.

[4] = system: motorneuronal apoptotic cell death; settings: after neonatal axotomy; cited from earlier work

Structure (SMILES)	number of apoptotic neurons [1]	number of neurones undergoing apoptosis (FIG. 2) [2]	sensory neuronal apoptosis [2]	glial apoptosis [2]	mechanical paw withdrawal threshold [3]	Von Frey withdrawal threshold (mechanical allodynia) (mechanical allodynia)	motorneuronal apoptotic cell death [4]
Nc1nc(N)c(-c2cccc(Cl)c2Cl)c(CF)n1 (atropisomer, axis not shown) [4030W92, R(−)-2,4-diamino-5-(2,3-dichlorophenyl)-6-fluoromethyl pyrimidine]	significant reduction in the number of apoptotic neurons	decreases	significantly reduced sensory neuronal apoptosis	unaffected	significantly reversed the reduction in thresholds	significantly reversed the reduction in thresholds	–
Nc1nnc(-c2cccc(Cl)c2Cl)c(N)n1 [lamotrigine, 3,5-diamino-6-(2,3-dichlorophenyl)-1,2,4-triazine]	–	–	–	–	–	–	can prevent motorneuronal apoptotic cell death
Nc1nc(N)c(-c2cccc(Cl)c2Cl)c(CF)n1 [4082W92, S(+)-2,4-diamino-5-(2,3-dichlorophenyl)-6-fluoromethylpyrimidine]	–	decreases	significantly reduced sensory neuronal apoptosis	unaffected	–	–	–
